ChEMBL document CHEMBL3286226, “Discovery of thienopyrimidine-based FLT3 inhibitors from the structural modification of known IKKβ inhibitors” (Bioorg Med Chem Lett, 2014)
pIC50: −log10 of the molar value.

Columns and labels:
RAW264.7 [1] = tested on: RAW264.7
Description: (§1) Antiinflammatory activity against mouse RAW264.7 cells assessed as reduction of LPS-induced TNF-alpha production

RAW264.7 [2] = assay: cells; conditions: Mus musculus
Description: Antiinflammatory activity against mouse RAW264.7 cells assessed as reduction of LPS-induced NO production

RAW264.7 [3] = assay: cells; conditions: Mus musculus; remark: listed apart in the source
Description: as §1

[4] = target: T1, Receptor-type tyrosine-protein kinase FLT3 (Homo sapiens, UniProt P36888)
T1 sequence (P36888 whole entry): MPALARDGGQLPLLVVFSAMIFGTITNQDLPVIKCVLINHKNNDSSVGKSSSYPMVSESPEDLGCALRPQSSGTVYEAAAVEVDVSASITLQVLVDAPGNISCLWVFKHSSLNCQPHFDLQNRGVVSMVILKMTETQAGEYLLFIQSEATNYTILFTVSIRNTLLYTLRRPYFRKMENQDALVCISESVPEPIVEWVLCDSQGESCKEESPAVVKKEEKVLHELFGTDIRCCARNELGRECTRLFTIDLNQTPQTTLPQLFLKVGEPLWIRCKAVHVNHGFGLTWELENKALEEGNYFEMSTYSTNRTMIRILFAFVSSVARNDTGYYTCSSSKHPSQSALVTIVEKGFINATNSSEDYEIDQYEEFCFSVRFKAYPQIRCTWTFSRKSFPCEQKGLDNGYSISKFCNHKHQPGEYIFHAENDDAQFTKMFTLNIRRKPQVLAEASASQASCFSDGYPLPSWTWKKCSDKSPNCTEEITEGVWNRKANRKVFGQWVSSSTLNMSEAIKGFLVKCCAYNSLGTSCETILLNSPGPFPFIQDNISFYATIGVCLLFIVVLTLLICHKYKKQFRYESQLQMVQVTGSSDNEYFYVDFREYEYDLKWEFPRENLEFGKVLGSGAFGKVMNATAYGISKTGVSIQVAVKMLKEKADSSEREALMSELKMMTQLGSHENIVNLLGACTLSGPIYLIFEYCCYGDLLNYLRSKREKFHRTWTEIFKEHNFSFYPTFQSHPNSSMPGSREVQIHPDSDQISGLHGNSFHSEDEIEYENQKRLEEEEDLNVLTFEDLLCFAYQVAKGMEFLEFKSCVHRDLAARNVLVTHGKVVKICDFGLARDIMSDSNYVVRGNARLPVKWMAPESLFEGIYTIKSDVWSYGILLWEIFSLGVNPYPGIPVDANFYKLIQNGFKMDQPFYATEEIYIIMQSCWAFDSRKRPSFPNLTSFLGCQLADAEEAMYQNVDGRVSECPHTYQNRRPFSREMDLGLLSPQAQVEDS
Description: Inhibition of FLT3 kinase (unknown origin)

[5] = target: T2, Inhibitor of nuclear factor kappa-B kinase subunit beta (Homo sapiens, UniProt O14920)
T2 sequence (O14920 whole entry): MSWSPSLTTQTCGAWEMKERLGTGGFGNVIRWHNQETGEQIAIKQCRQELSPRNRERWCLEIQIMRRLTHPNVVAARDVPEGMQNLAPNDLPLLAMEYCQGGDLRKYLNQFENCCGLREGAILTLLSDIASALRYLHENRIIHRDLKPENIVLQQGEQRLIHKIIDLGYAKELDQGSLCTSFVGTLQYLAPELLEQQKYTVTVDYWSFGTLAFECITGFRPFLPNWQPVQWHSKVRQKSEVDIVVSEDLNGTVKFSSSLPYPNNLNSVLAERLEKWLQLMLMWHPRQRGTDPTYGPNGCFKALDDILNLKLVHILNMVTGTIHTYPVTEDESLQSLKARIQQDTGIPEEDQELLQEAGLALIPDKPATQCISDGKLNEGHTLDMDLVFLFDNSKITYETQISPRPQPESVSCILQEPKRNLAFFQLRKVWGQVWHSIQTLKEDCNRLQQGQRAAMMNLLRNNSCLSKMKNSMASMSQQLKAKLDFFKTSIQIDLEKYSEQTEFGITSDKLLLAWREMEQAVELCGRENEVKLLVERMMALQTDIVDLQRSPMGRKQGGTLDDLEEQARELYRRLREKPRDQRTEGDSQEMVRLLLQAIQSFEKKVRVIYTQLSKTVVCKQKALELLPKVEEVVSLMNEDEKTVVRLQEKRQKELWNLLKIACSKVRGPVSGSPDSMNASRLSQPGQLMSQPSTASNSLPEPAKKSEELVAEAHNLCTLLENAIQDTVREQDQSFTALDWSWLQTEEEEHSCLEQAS
Description: Inhibition of IKKbeta kinase (unknown origin) by Lance ULight system

[6] = target: T2, Inhibitor of nuclear factor kappa-B kinase subunit beta; remark: listed apart in the source
Description: (§2) Inhibition of IKKbeta kinase (unknown origin) by Radioisotope system

[7] = target: Tyrosine-protein kinase Lyn (Homo sapiens) (UniProt P07948); assay: Inhibition of human Lyn assessed as residual activity at 10 uM relative to control
[8] = target: Tyrosine-protein kinase BTK (Homo sapiens) (UniProt Q06187); assay: Inhibition of human BTK assessed as residual activity at 10 uM relative to control
[9] = target: Receptor-type tyrosine-protein kinase FLT3 (Homo sapiens) (UniProt P36888); assay: Inhibition of human Flt3 assessed as residual activity at 10 uM relative to control
[10] = target: Inhibitor of nuclear factor kappa-B kinase subunit alpha (Homo sapiens) (UniProt O15111); assay: Inhibition of human IKKalpha assessed as residual activity at 10 uM relative to control
[11] = target: Inhibitor of nuclear factor kappa-B kinase subunit beta (Homo sapiens) (UniProt O14920); assay: Inhibition of human IKKbeta assessed as residual activity at 1 uM relative to control
[12] = target: Tyrosine-protein kinase JAK1 (Homo sapiens) (UniProt P23458); assay: Inhibition of human JAK1 assessed as residual activity at 10 uM relative to control
[13] = target: Mitogen-activated protein kinase 8 (Homo sapiens) (UniProt P45983); assay: Inhibition of human JNK1alpha1 assessed as residual activity at 10 uM relative to control
[14] = target: Mitogen-activated protein kinase 9 (Homo sapiens) (UniProt P45984); assay: Inhibition of human JNK2alpha2 assessed as residual activity at 10 uM relative to control
[15] = target: Tyrosine-protein kinase JAK3 (Homo sapiens) (UniProt P52333); assay: Inhibition of human JAK3 assessed as residual activity at 10 uM relative to control
[16] = target: Tyrosine-protein kinase Lck (Homo sapiens) (UniProt P06239); assay: Inhibition of human Lck assessed as residual activity at 10 uM relative to control
[17] = target: MAP kinase-activated protein kinase 2 (Homo sapiens) (UniProt P49137); assay: Inhibition of human MAPKAP-K2 assessed as residual activity at 10 uM relative to control
[18] = target: Dual specificity mitogen-activated protein kinase kinase 4 (Mus musculus) (UniProt P47809); assay: Inhibition of mouse MKK4 assessed as residual activity at 10 uM relative to control
[19] = target: Dual specificity mitogen-activated protein kinase kinase 6 (Homo sapiens) (UniProt P52564); assay: Inhibition of human MKK6 assessed as residual activity at 10 uM relative to control
[20] = target: Dual specificity mitogen-activated protein kinase kinase 7 (Homo sapiens) (UniProt O14733); assay: Inhibition of human MKK7beta assessed as residual activity at 10 uM relative to control
[21] = target: Ribosomal protein S6 kinase alpha-5 (Homo sapiens) (UniProt O75582); assay: Inhibition of human MSK1 assessed as residual activity at 10 uM relative to control
Homo sapiens = species: Homo sapiens; assay: Inhibition of human PKA assessed as residual activity at 10 uM relative to control
[22] = target: Rho-associated protein kinase 2 (Homo sapiens) (UniProt O75116); assay: Inhibition of human ROCK-2 assessed as residual activity at 10 uM relative to control
[23] = target: Mitogen-activated protein kinase 14 (Homo sapiens) (UniProt Q16539); assay: Inhibition of human SAPK2alpha assessed as residual activity at 10 uM relative to control
[24] = target: Mitogen-activated protein kinase 11 (Homo sapiens) (UniProt Q15759); assay: Inhibition of human SAPK2beta assessed as residual activity at 10 uM relative to control
[25] = target: Mitogen-activated protein kinase 12 (Homo sapiens) (UniProt P53778); assay: Inhibition of human SAPK3 assessed as residual activity at 10 uM relative to control
[26] = target: Mitogen-activated protein kinase 13 (Homo sapiens) (UniProt O15264); assay: Inhibition of human SAPK4 assessed as residual activity at 10 uM relative to control
[27] = target: Non-receptor tyrosine-protein kinase TYK2 (Homo sapiens) (UniProt P29597); assay: Inhibition of human TYK2 assessed as residual activity at 10 uM relative to control
[28] = target: T2, Inhibitor of nuclear factor kappa-B kinase subunit beta; remark: listed apart in the source
Description: as §2

Sequence of Dual specificity mitogen-activated protein kinase kinase 7 (Homo sapiens) (O14733 whole entry): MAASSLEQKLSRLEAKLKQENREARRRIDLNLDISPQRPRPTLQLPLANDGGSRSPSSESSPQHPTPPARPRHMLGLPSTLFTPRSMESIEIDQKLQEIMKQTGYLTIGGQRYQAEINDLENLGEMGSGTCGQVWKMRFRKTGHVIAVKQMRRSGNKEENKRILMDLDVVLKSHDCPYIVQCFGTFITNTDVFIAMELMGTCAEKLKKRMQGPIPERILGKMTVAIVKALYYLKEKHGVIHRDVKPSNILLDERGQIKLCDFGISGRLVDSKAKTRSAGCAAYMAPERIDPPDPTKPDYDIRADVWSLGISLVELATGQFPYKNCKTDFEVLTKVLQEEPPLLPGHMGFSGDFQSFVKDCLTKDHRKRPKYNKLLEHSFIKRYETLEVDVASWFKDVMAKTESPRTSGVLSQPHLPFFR
Sequence of Inhibitor of nuclear factor kappa-B kinase subunit alpha (Homo sapiens) (O15111 whole entry): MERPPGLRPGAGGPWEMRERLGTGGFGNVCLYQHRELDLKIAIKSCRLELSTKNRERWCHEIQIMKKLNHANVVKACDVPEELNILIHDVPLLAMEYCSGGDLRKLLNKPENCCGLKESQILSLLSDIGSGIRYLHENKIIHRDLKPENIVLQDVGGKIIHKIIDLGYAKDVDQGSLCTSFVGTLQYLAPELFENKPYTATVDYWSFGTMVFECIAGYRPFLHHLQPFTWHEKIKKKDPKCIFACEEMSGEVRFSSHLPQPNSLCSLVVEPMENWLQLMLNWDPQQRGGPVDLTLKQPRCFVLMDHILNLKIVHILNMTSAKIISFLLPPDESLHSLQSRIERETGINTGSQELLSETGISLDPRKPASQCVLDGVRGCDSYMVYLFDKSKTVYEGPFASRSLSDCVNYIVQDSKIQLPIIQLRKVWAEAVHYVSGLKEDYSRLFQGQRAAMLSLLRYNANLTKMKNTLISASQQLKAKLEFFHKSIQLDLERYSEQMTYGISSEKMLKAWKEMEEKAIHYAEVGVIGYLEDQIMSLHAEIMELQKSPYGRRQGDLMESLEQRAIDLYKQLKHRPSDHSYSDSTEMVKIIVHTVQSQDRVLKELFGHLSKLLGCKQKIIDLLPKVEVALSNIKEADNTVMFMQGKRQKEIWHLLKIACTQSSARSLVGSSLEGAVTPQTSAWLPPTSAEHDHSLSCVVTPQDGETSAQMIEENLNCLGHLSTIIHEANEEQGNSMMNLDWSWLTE
Sequence of Non-receptor tyrosine-protein kinase TYK2 (Homo sapiens) (P29597 whole entry): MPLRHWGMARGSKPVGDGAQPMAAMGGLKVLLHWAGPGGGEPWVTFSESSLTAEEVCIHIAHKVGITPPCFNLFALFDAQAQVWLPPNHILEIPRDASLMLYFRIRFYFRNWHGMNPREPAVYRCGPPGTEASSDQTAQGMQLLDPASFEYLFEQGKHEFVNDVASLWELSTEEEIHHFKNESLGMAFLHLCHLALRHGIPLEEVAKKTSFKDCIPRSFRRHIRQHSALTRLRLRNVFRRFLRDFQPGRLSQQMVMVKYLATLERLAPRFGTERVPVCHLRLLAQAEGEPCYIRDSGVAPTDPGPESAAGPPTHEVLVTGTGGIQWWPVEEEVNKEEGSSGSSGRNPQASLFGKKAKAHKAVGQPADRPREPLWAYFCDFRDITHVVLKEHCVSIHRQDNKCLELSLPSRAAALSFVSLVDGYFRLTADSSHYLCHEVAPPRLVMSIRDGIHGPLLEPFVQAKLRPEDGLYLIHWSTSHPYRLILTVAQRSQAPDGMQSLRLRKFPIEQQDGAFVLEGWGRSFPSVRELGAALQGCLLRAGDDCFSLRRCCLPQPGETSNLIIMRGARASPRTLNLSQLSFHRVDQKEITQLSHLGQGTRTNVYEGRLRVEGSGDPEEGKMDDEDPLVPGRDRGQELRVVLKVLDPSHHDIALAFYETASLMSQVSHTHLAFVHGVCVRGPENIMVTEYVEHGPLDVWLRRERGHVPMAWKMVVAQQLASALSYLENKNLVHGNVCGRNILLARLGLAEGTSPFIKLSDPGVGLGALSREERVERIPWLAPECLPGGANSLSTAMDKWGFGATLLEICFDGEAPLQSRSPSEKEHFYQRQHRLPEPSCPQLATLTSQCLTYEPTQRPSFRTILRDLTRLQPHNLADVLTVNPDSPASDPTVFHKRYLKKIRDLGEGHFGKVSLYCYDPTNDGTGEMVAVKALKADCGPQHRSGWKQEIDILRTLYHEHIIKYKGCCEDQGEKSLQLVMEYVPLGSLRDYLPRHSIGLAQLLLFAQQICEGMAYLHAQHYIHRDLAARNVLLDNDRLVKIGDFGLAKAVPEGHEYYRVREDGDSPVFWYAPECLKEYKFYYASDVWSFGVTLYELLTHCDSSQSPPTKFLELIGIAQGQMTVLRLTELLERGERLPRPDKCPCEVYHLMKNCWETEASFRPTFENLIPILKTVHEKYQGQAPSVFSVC
Sequence of Tyrosine-protein kinase Lck (Homo sapiens) (P06239 2-509 limits assumed): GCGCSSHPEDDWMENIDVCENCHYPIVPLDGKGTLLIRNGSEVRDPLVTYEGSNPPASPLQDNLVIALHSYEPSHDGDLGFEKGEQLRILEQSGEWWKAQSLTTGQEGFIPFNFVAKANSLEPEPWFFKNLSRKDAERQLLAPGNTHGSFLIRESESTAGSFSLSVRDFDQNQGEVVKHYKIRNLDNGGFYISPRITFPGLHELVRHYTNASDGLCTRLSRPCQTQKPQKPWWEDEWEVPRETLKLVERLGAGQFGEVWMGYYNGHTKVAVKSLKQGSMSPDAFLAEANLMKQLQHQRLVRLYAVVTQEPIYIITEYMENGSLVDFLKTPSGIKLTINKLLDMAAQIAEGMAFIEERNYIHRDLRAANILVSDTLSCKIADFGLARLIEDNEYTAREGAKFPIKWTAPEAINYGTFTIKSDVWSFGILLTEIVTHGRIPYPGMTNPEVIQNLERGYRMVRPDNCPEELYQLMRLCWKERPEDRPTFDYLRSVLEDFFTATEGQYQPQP
Sequence of Tyrosine-protein kinase JAK3 (Homo sapiens) (P52333 whole entry): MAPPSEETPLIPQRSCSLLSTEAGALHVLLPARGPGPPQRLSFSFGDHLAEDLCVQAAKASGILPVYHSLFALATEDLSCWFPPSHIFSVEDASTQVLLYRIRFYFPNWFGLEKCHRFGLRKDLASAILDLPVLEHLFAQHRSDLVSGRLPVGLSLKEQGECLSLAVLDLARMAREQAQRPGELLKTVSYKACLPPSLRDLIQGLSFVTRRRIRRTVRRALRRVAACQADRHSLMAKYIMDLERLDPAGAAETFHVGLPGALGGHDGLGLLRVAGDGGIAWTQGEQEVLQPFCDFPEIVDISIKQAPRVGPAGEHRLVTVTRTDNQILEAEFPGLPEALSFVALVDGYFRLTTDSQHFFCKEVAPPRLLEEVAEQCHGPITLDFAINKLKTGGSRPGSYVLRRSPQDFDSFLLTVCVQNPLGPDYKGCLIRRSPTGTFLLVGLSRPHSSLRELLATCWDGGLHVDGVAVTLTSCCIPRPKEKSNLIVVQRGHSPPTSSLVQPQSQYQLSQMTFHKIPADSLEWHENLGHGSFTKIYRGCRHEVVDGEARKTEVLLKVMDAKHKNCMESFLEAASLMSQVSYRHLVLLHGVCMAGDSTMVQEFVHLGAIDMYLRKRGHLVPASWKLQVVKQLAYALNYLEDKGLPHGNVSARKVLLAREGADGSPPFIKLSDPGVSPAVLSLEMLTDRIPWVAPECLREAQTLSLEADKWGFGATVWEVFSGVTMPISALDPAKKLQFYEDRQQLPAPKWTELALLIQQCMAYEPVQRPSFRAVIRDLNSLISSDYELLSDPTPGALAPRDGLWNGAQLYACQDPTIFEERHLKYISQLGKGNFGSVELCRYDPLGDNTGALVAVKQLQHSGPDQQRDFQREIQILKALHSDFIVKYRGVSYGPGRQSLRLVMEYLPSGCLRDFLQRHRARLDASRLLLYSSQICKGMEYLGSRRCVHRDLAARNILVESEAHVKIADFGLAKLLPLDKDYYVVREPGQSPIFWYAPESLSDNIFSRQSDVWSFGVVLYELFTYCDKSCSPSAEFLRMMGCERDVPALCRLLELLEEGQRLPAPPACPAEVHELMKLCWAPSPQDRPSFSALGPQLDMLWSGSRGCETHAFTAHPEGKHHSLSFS
Sequence of Dual specificity mitogen-activated protein kinase kinase 4 (Mus musculus) (P47809 whole entry): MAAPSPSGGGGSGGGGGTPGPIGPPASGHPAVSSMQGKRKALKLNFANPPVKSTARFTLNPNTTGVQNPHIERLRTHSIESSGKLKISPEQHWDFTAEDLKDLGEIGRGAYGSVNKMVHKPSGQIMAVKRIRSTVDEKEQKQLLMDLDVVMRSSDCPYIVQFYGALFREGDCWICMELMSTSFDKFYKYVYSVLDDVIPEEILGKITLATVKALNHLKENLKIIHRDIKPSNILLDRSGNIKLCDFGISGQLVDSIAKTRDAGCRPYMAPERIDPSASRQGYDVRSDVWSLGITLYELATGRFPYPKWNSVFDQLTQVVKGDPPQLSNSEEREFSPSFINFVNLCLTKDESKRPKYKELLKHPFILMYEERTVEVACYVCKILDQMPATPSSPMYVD
Sequence of Mitogen-activated protein kinase 8 (Homo sapiens) (P45983 whole entry): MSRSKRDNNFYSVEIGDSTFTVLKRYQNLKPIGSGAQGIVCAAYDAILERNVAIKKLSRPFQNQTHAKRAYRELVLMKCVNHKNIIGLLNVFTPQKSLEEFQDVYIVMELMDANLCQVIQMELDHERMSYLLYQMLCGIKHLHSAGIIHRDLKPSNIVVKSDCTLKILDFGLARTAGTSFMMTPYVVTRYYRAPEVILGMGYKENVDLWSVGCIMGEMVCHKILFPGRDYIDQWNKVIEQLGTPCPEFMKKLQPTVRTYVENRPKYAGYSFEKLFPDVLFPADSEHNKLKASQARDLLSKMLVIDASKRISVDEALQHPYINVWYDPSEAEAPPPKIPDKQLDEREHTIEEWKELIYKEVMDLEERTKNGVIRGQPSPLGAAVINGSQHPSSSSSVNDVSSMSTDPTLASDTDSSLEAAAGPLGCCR

O=C1C=CC(=O)N1Nc1ncnc2scc(-c3cccs3)c12
IC50 (RAW264.7 [1]): Not Active | pIC50 (RAW264.7 [2]): < 5.00

CC1=CC(=O)N(Nc2nc(-c3cccs3)nc3scc(-c4cccs4)c23)C1=O
pIC50 (RAW264.7 [3]): 6.15 | pIC50 (RAW264.7 [2]): 5.66

CCOC(=O)Cc1csc2nc(-c3cccs3)nc(NN3C(=O)C=C(C)C3=O)c12
pIC50 [4]: 6.17 | pIC50 [5]: < 4.30 | IC50 [6]: Not Active | pIC50 (RAW264.7 [3]): 5.28 | pIC50 (RAW264.7 [2]): 5.29

CC1=CC(=O)N(Nc2nc(-c3cccs3)nc3scc(-c4cccc(OCCN5CCCCC5)c4)c23)C1=O
Activity [7]: 81% | Activity [8]: 100% | Activity [9]: 4% | Activity [10]: 98% | Activity [11]: 84% | Activity [12]: 111% | Activity [13]: 93% | Activity [14]: 117% | Activity [15]: 112% | Activity [16]: 74% | Activity [17]: 94% | Activity [18]: 112% | Activity [19]: 96% | Activity [20]: 108% | Activity [21]: 102% | Activity (Homo sapiens): 126% | Activity [22]: 96% | Activity [23]: 96% | Activity [24]: 103% | Activity [25]: 99% | Activity [26]: 100% | Activity [27]: 87% | pIC50 [4]: 6.88 | pIC50 (RAW264.7 [3]): 5.53 | pIC50 (RAW264.7 [2]): 5.67

CC1=CC(=O)N(Nc2nc(-c3cccs3)nc3scc(-c4ccc(OCCN5CCCCC5)cc4)c23)C1=O.Cl
pIC50 [4]: 7.07 | IC50 [6]: Not Active | pIC50 (RAW264.7 [3]): 5.67 | pIC50 (RAW264.7 [2]): 5.77

CC1=CC(=O)N(Nc2nc(-c3cccs3)nc3scc(-c4cccc(OCCN(C)C)c4)c23)C1=O
pIC50 [5]: < 4.30 | pIC50 [28]: < 4.30 | pIC50 (RAW264.7 [3]): 5.01 | pIC50 (RAW264.7 [2]): 5.12

CC1=CC(=O)N(Nc2nc(-c3ccco3)nc3scc(-c4cccs4)c23)C1=O
pIC50 (RAW264.7 [3]): 5.40 | pIC50 (RAW264.7 [2]): 5.28

CC1=CC(=O)N(Nc2nc(-c3cccs3)nc3scc(-c4ccccc4)c23)C1=O
Activity [7]: 92% | Activity [8]: 76% | Activity [9]: 8% | Activity [10]: 119% | Activity [11]: 116% | Activity [12]: 103% | Activity [13]: 87% | Activity [14]: 94% | Activity [15]: 121% | Activity [16]: 86% | Activity [17]: 102% | Activity [18]: 113% | Activity [19]: 99% | Activity [20]: 122% | Activity [21]: 96% | Activity (Homo sapiens): 125% | Activity [22]: 99% | Activity [23]: 92% | Activity [24]: 98% | Activity [25]: 109% | Activity [26]: 90% | Activity [27]: 86% | pIC50 [4]: 6.68 | pIC50 [5]: < 4.30 | IC50 [6]: Not Active | pIC50 (RAW264.7 [3]): 5.89 | pIC50 (RAW264.7 [2]): 6.12

CC1=C(C)C(=O)N(Nc2ncnc3scc(-c4cccs4)c23)C1=O
IC50 (RAW264.7 [1]): Not Active | pIC50 (RAW264.7 [2]): < 5.00

CC1=CC(=O)N(Nc2nc(-c3cccs3)nc3sccc23)C1=O
pIC50 [5]: < 4.30 | IC50 [6]: Not Active | pIC50 (RAW264.7 [3]): 5.05 | pIC50 (RAW264.7 [2]): 5.16

O=C1c2ccccc2C(=O)N1Nc1ncnc2scc(-c3cccs3)c12
IC50 (RAW264.7 [1]): Not Active | pIC50 (RAW264.7 [2]): < 5.00
